Test results: US20030118577A1, “Use of analogues of superoxide dismutase for treating hepatocellular insufficiencies” (priority 2000, published 2003)

Columns and labels:
[1] = test system: acute hepatic insufficiency induced by acetaminophen; experiment: Survival of mice after intraperitoneal acetaminophen (acute hepatic insufficiency)
Method: The intraperitoneal injection of acetaminophen into mice induces a severe hepatotoxicity, the degree of which may be evaluated by the survival of the animals, measuring transaminase activities, and macroscopic and microscopic examination of the livers.
The acetaminophen in solution at 100 mg/ml in PBS at pH 7.4 is administered by the intraperitoneal route.
In a first series of experiments, a group of mice received a dose of 1000 mg/kg of acetaminophen; a second group received a dose of 1000 mg/kg of acetaminophen and a dose of 10 mg/kg of MnTBAP administered either 2 h before the acetaminophen or 6 h after; a control group received either MnTBAP alone (10 mg/kg), or PBS alone.
The survival of the animals is monitored for 24 hours after the administration of acetaminophen.
The effect of N-acetyl-L-cysteine (NAC), of CuDIPS, and of MnTBAP on the survival of mice after intraperitoneal injection of 1000 mg/kg of acetaminophen (APAP) was compared.
MnTBAP, NAC, or CuDIPS are administered in the form of a bolus, preventively, 2 hours before (P) or, curatively, 6 hours after (C) the acetaminophen.
The survival of the animals is monitored for 24 hours after administration of acetaminophen.

[2] = test system: ischemic lesions of hepatic grafts; experiment: Transaminase release from removed mouse livers in Belzer's preservation fluid; settings: Belzer's fluid with MnTBAP 10 μg/ml; 4° C.
Method: Ischemia of hepatic grafts after their removal and during their preservation at 4° C. causes hepatocytic lesions.
The intensity of the lesions may be evaluated on the concentration of transaminases in the preservation fluid.
Mouse livers were surgically removed, rinsed with Belzer's preservation fluid supplemented or otherwise with MnTBAP at the concentration of 10 μg/ml. The transaminases were then assayed in the fluid at various times after removal of the organ.

[3] = Glutathione peroxidase activity of the mimetic; assay type: biochemical; settings: observed by the inventors

O=C(O)c1ccc(-c2c3nc(c(-c4ccc(C(=O)O)cc4)c4ccc([n-]4)c(-c4ccc(C(=O)O)cc4)c4nc(c(-c5ccc(C(=O)O)cc5)c5ccc2[n-]5)C=C4)C=C3)cc1.[Mn+3] [MnTBAP, Mn(III) tetrakis(5,10,15,20-benzoic acid)porphyrin]
percentage of surviving animals ([1]; Group V: APAP 1000 mg/kg, MnTBAP 10 mg/kg (P), time 18 h): 65.7% | percentage of surviving animals ([1]; Group V: APAP 1000 mg/kg, MnTBAP 10 mg/kg (P), time 20 h): 65.7% | percentage of surviving animals ([1]; Group V: APAP 1000 mg/kg, MnTBAP 10 mg/kg (P), time 22 h): 65.7% | percentage of surviving animals ([1]; Group V: APAP 1000 mg/kg, MnTBAP 10 mg/kg (P), time 24 h): 62.9% | percentage of surviving animals ([1]; Group VI: APAP 1000 mg/kg, MnTBAP 20 mg/kg (P), time 0 h): 100% | percentage of surviving animals ([1]; Group VI: APAP 1000 mg/kg, MnTBAP 20 mg/kg (P), time 6 h): 100% | percentage of surviving animals ([1]; Group VI: APAP 1000 mg/kg, MnTBAP 20 mg/kg (P), time 8 h): 100% | percentage of surviving animals ([1]; Group VI: APAP 1000 mg/kg, MnTBAP 20 mg/kg (P), time 9 h): 100% | percentage of surviving animals ([1]; Group VI: APAP 1000 mg/kg, MnTBAP 20 mg/kg (P), time 10 h): 100% | percentage of surviving animals ([1]; Group VI: APAP 1000 mg/kg, MnTBAP 20 mg/kg (P), time 11 h): 100% | percentage of surviving animals ([1]; Group VI: APAP 1000 mg/kg, MnTBAP 20 mg/kg (P), time 12 h): 100% | percentage of surviving animals ([1]; Group VI: APAP 1000 mg/kg, MnTBAP 20 mg/kg (P), time 13 h): 100% | percentage of surviving animals ([1]; Group VI: APAP 1000 mg/kg, MnTBAP 20 mg/kg (P), time 14 h): 100% | percentage of surviving animals ([1]; Group VI: APAP 1000 mg/kg, MnTBAP 20 mg/kg (P), time 15 h): 90% | percentage of surviving animals ([1]; Group VI: APAP 1000 mg/kg, MnTBAP 20 mg/kg (P), time 16 h): 90% | percentage of surviving animals ([1]; Group VI: APAP 1000 mg/kg, MnTBAP 20 mg/kg (P), time 17 h): 90% | percentage of surviving animals ([1]; Group VI: APAP 1000 mg/kg, MnTBAP 20 mg/kg (P), time 18 h): 90% | percentage of surviving animals ([1]; Group VI: APAP 1000 mg/kg, MnTBAP 20 mg/kg (P), time 20 h): 90% | percentage of surviving animals ([1]; Group VI: APAP 1000 mg/kg, MnTBAP 20 mg/kg (P), time 22 h): 90% | percentage of surviving animals ([1]; Group VI: APAP 1000 mg/kg, MnTBAP 20 mg/kg (P), time 24 h): 90% | percentage of surviving animals ([1]; Group VII: APAP 1000 mg/kg, MnTBAP 10 mg/kg (C), time 0 h): 100% | percentage of surviving animals ([1]; Group VII: APAP 1000 mg/kg, MnTBAP 10 mg/kg (C), time 6 h): 100% | percentage of surviving animals ([1]; Group VII: APAP 1000 mg/kg, MnTBAP 10 mg/kg (C), time 8 h): 100% | percentage of surviving animals ([1]; Group VII: APAP 1000 mg/kg, MnTBAP 10 mg/kg (C), time 9 h): 100% | percentage of surviving animals ([1]; Group VII: APAP 1000 mg/kg, MnTBAP 10 mg/kg (C), time 10 h): 94% | percentage of surviving animals ([1]; Group VII: APAP 1000 mg/kg, MnTBAP 10 mg/kg (C), time 11 h): 94% | percentage of surviving animals ([1]; Group VII: APAP 1000 mg/kg, MnTBAP 10 mg/kg (C), time 12 h): 81% | percentage of surviving animals ([1]; Group VII: APAP 1000 mg/kg, MnTBAP 10 mg/kg (C), time 13 h): 69% | percentage of surviving animals ([1]; Group VII: APAP 1000 mg/kg, MnTBAP 10 mg/kg (C), time 14 h): 69% | percentage of surviving animals ([1]; Group VII: APAP 1000 mg/kg, MnTBAP 10 mg/kg (C), time 15 h): 69% | percentage of surviving animals ([1]; Group VII: APAP 1000 mg/kg, MnTBAP 10 mg/kg (C), time 16 h): 56% | percentage of surviving animals ([1]; Group VII: APAP 1000 mg/kg, MnTBAP 10 mg/kg (C), time 17 h): 56% | percentage of surviving animals ([1]; Group VII: APAP 1000 mg/kg, MnTBAP 10 mg/kg (C), time 18 h): 56% | percentage of surviving animals ([1]; Group VII: APAP 1000 mg/kg, MnTBAP 10 mg/kg (C), time 20 h): 56% | percentage of surviving animals ([1]; Group VII: APAP 1000 mg/kg, MnTBAP 10 mg/kg (C), time 22 h): 56% | percentage of surviving animals ([1]; Group VII: APAP 1000 mg/kg, MnTBAP 10 mg/kg (C), time 24 h): 44% | percentage of surviving animals ([1]; Group VIII: APAP 1000 mg/kg, MnTBAP 20 mg/kg (C), time 0 h): 100% | percentage of surviving animals ([1]; Group VIII: APAP 1000 mg/kg, MnTBAP 20 mg/kg (C), time 6 h): 100% | percentage of surviving animals ([1]; Group VIII: APAP 1000 mg/kg, MnTBAP 20 mg/kg (C), time 8 h): 100% | percentage of surviving animals ([1]; Group VIII: APAP 1000 mg/kg, MnTBAP 20 mg/kg (C), time 9 h): 100% | percentage of surviving animals ([1]; Group VIII: APAP 1000 mg/kg, MnTBAP 20 mg/kg (C), time 10 h): 100% | percentage of surviving animals ([1]; Group VIII: APAP 1000 mg/kg, MnTBAP 20 mg/kg (C), time 11 h): 100% | percentage of surviving animals ([1]; Group VIII: APAP 1000 mg/kg, MnTBAP 20 mg/kg (C), time 12 h): 90% | percentage of surviving animals ([1]; Group VIII: APAP 1000 mg/kg, MnTBAP 20 mg/kg (C), time 13 h): 90% | percentage of surviving animals ([1]; Group VIII: APAP 1000 mg/kg, MnTBAP 20 mg/kg (C), time 14 h): 90% | percentage of surviving animals ([1]; Group VIII: APAP 1000 mg/kg, MnTBAP 20 mg/kg (C), time 15 h): 90% | percentage of surviving animals ([1]; Group VIII: APAP 1000 mg/kg, MnTBAP 20 mg/kg (C), time 16 h): 90% | percentage of surviving animals ([1]; Group VIII: APAP 1000 mg/kg, MnTBAP 20 mg/kg (C), time 17 h): 80% | percentage of surviving animals ([1]; Group VIII: APAP 1000 mg/kg, MnTBAP 20 mg/kg (C), time 18 h): 80% | percentage of surviving animals ([1]; Group VIII: APAP 1000 mg/kg, MnTBAP 20 mg/kg (C), time 20 h): 70% | percentage of surviving animals ([1]; Group VIII: APAP 1000 mg/kg, MnTBAP 20 mg/kg (C), time 22 h): 70% | percentage of surviving animals ([1]; Group VIII: APAP 1000 mg/kg, MnTBAP 20 mg/kg (C), time 24 h): 70% | death of animals ([1]; MnTBAP alone 10 mg/kg ip, no acetaminophen, 24 hours): No death | release of transaminases by the liver into preservation fluid [2]: reduction in the release of transaminases | glutathione peroxidase activity [3]: possessed, in addition, a glutathione peroxidase activity
